The source of these data is patent US20050101633A1, “Remedial agent for myelopathic disease” (priority 2001, published 2005).

The test system of assay [1] is spinal cord injury model in rats. Particulars: reported in Brain Research, 799, 264-269 (1998); cited from earlier work.
The test system of a further assay is CINC-1 protein. Kind of assay: Suppression of CINC-1 expression on rat spinal cord injury model. The class given is in vivo. Conditions: Wistar rats; injected via femoral vein 15 min before spinal cord injury; T13 segment; FIG. 1. As for the experimental part: Under anesthesia using pentobarbital (40 mg/kg of body weight), spinal cord injury model was made using Wistar rats weighing 250-300 g according to the operative procedure of Tonai et al. [J. Neurochem. 72, 302-309 (1999)]. At various time intervals after injury, the rats were frozen, and then T13 spinal cord segment was removed for analysis of CINC-1 protein.
The test compound was dissolved in physiologic saline containing 12 mM Na2CO3 and injected via the femoral vein 15 min before spinal cord injury. Saline vehicle alone was administered by the same route in control animals.

In assay [2] the test system is rat spinal cord injury model. Kind of assay: Improvement of dyskinesia, open field walking scale after spinal cord injury. The class given is in vivo. Particulars: 50 mg/kg injected 15 min before SCI; compression injury with 20-g weight; up to 28 days; FIG. 4. As for the experimental part:
(§1) SCI was induced 15 min after injection of test compound (50 mg/kg). Dyskinesia was assessed according to an open field walking scale (Behrmann et al., Exp. Neurol. 126, 61-75 (1994)) and an inclined-plane test (Rivlin et al., J. Neurosurg. 47, 577-581 (1977)) using rats subjected to compression injury with a 20-g weight. In the open field walking scale, animals were scored from 0 (no spontaneous movement) to 5 (normal gait) based on 5 min of observation. With the scale, the animal's capability for gross hindlimb movement was evaluated before SCI, every 2 days afterward for 2 weeks beginning on the first day, and later at 21 and 28 days after injury. In the inclined-plane test, a cork mat was fixed to the surface of a movable inclined plane. We recorded the maximal angle of inclined-plane at which the rat could maintain position for […]. This was evaluated before and at 1, 7, 14, 21 and 28 days after injury.

The subject of the next assay is myeloperoxidase activity. Nature of the assay: Assay of myeloperoxidase (MPO) activity in T13 spinal cord segment after spinal cord injury. The class given is in vivo, rat. Particulars: administered 15 minutes before spinal cord injury, FIG. 2. How it is done: For assessment of accumulation and infiltration of leukocytes, we measured myeloperoxidase activity according to a modification of the method of Xu et al. (J. neurochem. 55, 907-912 (1990)). The test compound was administrated 15 minutes before spinal cord injury, and then the T13 segments 2, 4, 8, 12 and 24 h after injury were sonicated in 1 mL of 50 mM potassium phosphate buffer (pH 6.0) containing 0.5% […]. The homogenates were centrifuged at 10,000×g for 20 min, and 0.1 mL of the supernatant was added to 0.6 mL of 50 mM potassium phosphate buffer (pH 6.0) containing 0.53 mM o-dianisidine dihydrochrolide and 0.15 mM H2O2. After 5 min, the change in absorbance at 460 nm was monitored with a spectrophotometer (model DU 640, Beckmann, Germany).

Assay [3] relates to rat spinal cord injury model. Nature of the assay: Improvement of dyskinesia, inclined-plane test after spinal cord injury. The class given is in vivo. Particulars: 50 mg/kg injected 15 min before SCI; compression injury with 20-g weight; up to 28 days; FIG. 5. How it is done: as §1
For a further assay, the system named is blood-CNS barrier. Nature of the assay: Blood-CNS barrier disruption (Evans blue dye) after spinal cord injury. The class given is in vivo, rat. Particulars: 50 mg/kg injected 15 min before SCI; Evans blue at 6 h after SCI; FIG. 3. As for the experimental part: Disruption of the blood-CNS barrier was assessed according to the method of Uyama et al. [J. Cereb. Blood Flow Metab. 8, 282-284 (1988)] with certain modifications. SCI was induced 15 min after injection of test compound (50 mg/kg). At 6 h after SCI, 4 mL/kg of 2.5% Evans blue dye solution was administered via the femoral vein. One hour later rats were anesthetized by pentobarbital (40 mg/kg) and killed. The T13 spinal cord segment was removed and homogenized in 1 mL of 50% trichloroacetic acid (w/v). After centrifugation the extracted dye was diluted fourfold with ethanol, and its fluorescence was quantified using a spectrophotometer at an excitation wavelength of 620 nm and an emission wavelength of 680 nm.

Consider `CO[C@H]1C(=O)N2C(C(=O)N3CCC[C@H]3C(=O)O)=C(COC(C)=O)CS(=O)(=O)[C@H]12` [L 658,758], for which the “efficacy in spinal cord injury model in rats” value in assay [1] is reported as “effective”.

`CC(C)(C)C(=O)Oc1ccc(S(=O)(=O)Nc2ccccc2C(=O)NCC(=O)[O-])cc1.O.O.O.O.[Na+]` [compound (X), N-[o-(p-pivaloyloxybenzenesulfonylamino)benzoyl]glycine monosodium salt tetrahydrate]: in the assay on CINC-1 protein, the “CINC-1 protein expression after spinal cord injury” value is “suppressed in dose-dependently”. Moreover, the “dyskinesia after spinal cord injury, open field walking scale” value in assay [2] is on record as “suppressed dyskinesia after spinal cord injury significantly”. The myeloperoxidase activity in the assay with myeloperoxidase activity (4 hours after injury) is recorded as 46 % of control; with myeloperoxidase activity (12 hours after injury), 61 % of control; in the assay on myeloperoxidase activity (24 hours after injury) it was 64 % of control. The “dyskinesia after spinal cord injury, inclined-plane test” value in assay [3] is recorded as “suppressed dyskinesia after spinal cord injury significantly”. The Blood-CNS barrier disruption entry with blood-CNS barrier is given as “suppressed Blood-CNS barrier disruption significantly”.

Consider Eglin C, for which the “efficacy in spinal cord injury model in rats” value in assay [1] is listed as “effective”.
